Patent publication EP0728012B1, “NOVEL GnRH ANALOGUES WITH ANTITUMOUR EFFECTS AND PHARMACEUTICAL COMPOSITIONS THEREOF” (Lovas, Sandor, priority 1994, dated 1996)

Legend:
MCF-7 = assay: Inhibition of colony formation by GnRH analogues (dose-survival, Example 48); format: cell-based, human; details: treated once
Description: (§1) The examination gives accurate information about the cell-damaging effect of the substance tested as a function of varying doses. The treatment was carried out once; the colonies formed from the surviving cells were counted after 8 - 12 days. […] A part of the arrested cells again entered the cycle, another part of them might be destroyed (apoptosis). […] In the case of a dose-response investigation, colonies containing less than 15 cells were not counted. 300 cells were put into each Petri dishes of 3.5 cm in diameter. The treatment was once carried out 24 hours after setting, then the colonies formed were counted after 8 - 12 days. The cells were treated once after 24 hours with 1-50 µM of various GnRH analogues of Examples above or with 1 - 50 µM of GnRH-III, respectively. The percentages of inhibition obtained on MCF-7, MDA-MB-231, PC3 and Ishikawa cells, respectively, together with the dose of the active agent used are shown in Table VIII.

human tumour cell lines = assay: Inhibition of colony formation (Example 48), comparison with the control D-Trp^6-hGnRH; format: cell-based; details: data of Table VIII
Description: as §1
In these studies the D-Trp^6-hGnRH analogue (Sigma Co.) commonly used in the tumour therapy was employed as control.

MDA-MB-231 = assay: Inhibition of colony formation by GnRH analogues (dose-survival, Example 48); format: cell-based, human
Description: as §1

[1] = test system: Ishikawa human endometrium carcinoma cell line; assay: Inhibition of colony formation (dose-survival relation, Example 18); format: cell-based; details: for % Inhibition of colony formation: 50 µM; for inhibition of colony formation: concentration not given
Description: (§2) In the case of cytostatics the cell-damaging effect is not cell-specific. […] One part of the arrested cells again go into the cycle, the other part may perish (apoptosis). […] The investigations were carried out on MCF-7 and MDA-MB-231 human mammary carcinoma cell lines, PC3 human prostate 15 carcinoma cell line and Ishikawa human endometrium carcinoma cell line. Three hundred cells were set into Petri dishes of 3.5 cm in diameter each. The treatment was carried out once, 24 hours following the explantation, then the colonies formed were counted after 9 to 12 days.

[2] = test system: MDA-MB-231 human mammary carcinoma cell line; assay: as above; format: cell-based; details: for % Inhibition of colony formation: 50 µM
Description: as §2

[3] = test system: PC3 human prostate carcinoma cell line; assay: as above; format: cell-based; details: for inhibition of colony formation: concentration not given
Description: as §2

[4] = test system: MCF-7 human mammary carcinoma cell line; assay: as above; format: cell-based; details: for % Inhibition of colony formation: 50 µM (active substance), treated once
Description: as §2

Ishikawa = assay: Inhibition of colony formation by GnRH analogues (dose-survival, Example 48); format: cell-based, human; details: 50 µM
Description: as §1

Question: For `CC(C)C[C@H](NC(=O)[C@@H](Cc1c[nH]c2ccccc12)NC(=O)[C@H](Cc1ccc(O)cc1)NC(=O)[C@H](CO)NC(=O)[C@H](Cc1c[nH]c2ccccc12)NC(=O)[C@H](Cc1c[nH]cn1)NC(=O)[C@@H](N)CCC(=O)O)C(=O)N[C@@H](CCCNC(=N)N)C(=O)N1CCC[C@H]1C(=O)NCC(N)=O` [19. H-Glu^1,D-Trp^6 - hGnRH, H-Glu^1,D-Trp^6-hGnRH], which “% Inhibition of the colony formation” value (MCF-7; 10 µM) is on record?
Answer: Its value is 16.8%.

Question: And the “% Inhibition of the colony formation” value (MCF-7; 50 µM)?
Answer: The value was 32.7%.

Question: What about the “inhibitory effect compared with the control D-Trp^6-hGnRH” value (human tumour cell lines) of the same compound?
Answer: Its value is “approximated the activity of the control”.

Question: Which “% Inhibition of the colony formation” value (MDA-MB-231; 50 µM) does the source give for `NCCCC[C@H](NC(=O)[C@H](Cc1ccccc1)NC(=O)[C@H](CC(=O)O)NC(=O)[C@H](Cc1c[nH]cn1)NC(=O)[C@H](CO)NC(=O)[C@H](Cc1c[nH]c2ccccc12)NC(=O)[C@H](Cc1c[nH]cn1)NC(=O)[C@@H]1CCC(=O)N1)C(=O)N1CCC[C@H]1C(=O)NCC(N)=O` [15. Phe^7 -GnRH-III, Phe^7-GnRH-III] here?
Answer: The value was 21%.

Question: And the “% Inhibition of the colony formation” value (MCF-7; 50 µM)?
Answer: Its value is 26%.

Question: What about the “inhibitory effect compared with the control D-Trp^6-hGnRH” value (human tumour cell lines) of the same compound?
Answer: Its value is “a weak if any effect”.

Question: How did the “% Inhibition of the colony formation” value (MDA-MB-231; 50 µM) turn out when `NCCCC[C@H](NC(=O)[C@H](CO)NC(=O)[C@H](Cc1c[nH]c2ccccc12)NC(=O)[C@H](Cc1c[nH]cn1)NC(=O)[C@@H]1CCC(=O)N1)C(=O)N[C@@H](CC(=O)O)C(=O)N[C@@H](Cc1c[nH]c2ccccc12)C(=O)N[C@@H](CCCCN)C(=O)N1CCC[C@H]1C(=O)NCC(N)=O` [2. Lys^5-GnRH-III, Lys^5-GnRH-III] was run?
Answer: The value was 0%.

Question: What about the “% Inhibition of the colony formation” value (MCF-7; 50 µM) of the same compound?
Answer: The value was 0%.

Question: Which results are given for “pGlu-His-Trp-Ser-Tyr-D-Trp-Leu-Arg-Pro-Gly-NH2 [D-Trp^6-hGnRH (Decapeptyl), reference compound]”?
Answer: % Inhibition of the colony formation (MDA-MB-231; 10 µM): 15.7%; % Inhibition of the colony formation (MDA-MB-231; 50 µM): 38.7%; % Inhibition of the colony formation (MCF-7; 10 µM): 17.1%; % Inhibition of the colony formation (MCF-7; 50 µM): 36.7%

Question: For “{Lys[n-poly(N-vinylpyrrolidone-co-maleic acid)-Gly-Phe-Leu-Gly-]}^5,cyclo(Asp^6-Lys^8)-GnRH-III [P-GFLG-Lys^5-cyclo(Asp^6,Lys^8)-GnRH-III]”, which “% Inhibition of colony formation” value [1] is on record?
Answer: Its value is 19%.

Question: What about the “inhibition of colony formation” value [1] of the same compound?
Answer: Its value is 19%.

Question: What about the “% Inhibition of colony formation” value [2] of the same compound?
Answer: The value was 82%.

Question: And the “% Inhibition of colony formation” value ([3]; 50 µM)?
Answer: The value was 100%.

Question: And the “inhibition of colony formation” value [3]?
Answer: The value was 100%.

Question: And the “% Inhibition of colony formation” value [4]?
Answer: The value was 78%.

Question: How did the “inhibitory effect compared with the control D-Trp^6-hGnRH” value (human tumour cell lines) turn out when `NCCCC[C@H](NC(=O)[C@H](Cc1c[nH]c2ccccc12)NC(=O)[C@H](CC(=O)O)NC(=O)[C@H](CCCCNC(=O)OCC1c2ccccc2-c2ccccc21)NC(=O)[C@H](CO)NC(=O)[C@H](Cc1c[nH]c2ccccc12)NC(=O)[C@H](Cc1c[nH]cn1)NC(=O)[C@@H]1CCC(=O)N1)C(=O)N1CCC[C@H]1C(=O)NCC(N)=O` [Example 26, [Lys(εFmoc)]^5-GnRH-III] was run?
Answer: The value was “a weak if any effect”.

Question: Which results are given for `NCCCC[C@H](NC(=O)[C@H](Cc1cn(C=O)c2ccccc12)NC(=O)[C@H](CC(=O)O)NC(=O)[C@H](Cc1c[nH]cn1)NC(=O)[C@H](CO)NC(=O)[C@H](Cc1cn(C=O)c2ccccc12)NC(=O)[C@H](Cc1c[nH]cn1)NC(=O)[C@@H]1CCC(=O)N1)C(=O)N1CCC[C@H]1C(=O)NCC(N)=O` [14. [Trp(For-Ind)]^3,7- -GnRH-III, [Trp(For-Ind)]^3,7-GnRH-III]?
Answer: % Inhibition of the colony formation (Ishikawa): 24%; % Inhibition of the colony formation (MCF-7; 50 µM): 31%; inhibitory effect compared with the control D-Trp^6-hGnRH (human tumour cell lines): approximated the activity of the control

Question: Which results are given for “{Lys[n-poly(N-vinylpyrrolidone-co-maleic acid)-Gly-Phe-Leu-Gly-]}^4,-GnRH-III [P-GFLG-Lys^4-GnRH-III]”?
Answer: % Inhibition of colony formation [1]: 25%; inhibition of colony formation [1]: 25%; % Inhibition of colony formation [2]: 75%; inhibition of colony formation ([2]; concentration not given): 75%; % Inhibition of colony formation ([3]; 30 µM): 94%; inhibition of colony formation [3]: 94%; % Inhibition of colony formation [4]: 68%; inhibition of colony formation ([4]; concentration not given): 68%
